# Experimental data reported in patent US20060276452A1, “Use of azetidinecarboxamide derivatives in therapy” (VERNALIS RESEARCH LIMITED, priority 2003, published 2006).
# pKi: −log10 of the molar value.
# Assays:
# [1] = target: T1, recombinant human CB1 receptors (Homo sapiens, UniProt P21554); experiment: Binding to recombinant human CB1 receptors ([3H]-SR-141716A displacement, HEK293 membranes); conditions: [3H]-SR-141716A 1 nM; membranes of HEK293 cells expressing hCB1; Ki from IC50 by Cheng-Prusoff
# T1 construct: expressed in transfected cells; host or cells: HEK293 cells
# T1 sequence (P21554 whole entry): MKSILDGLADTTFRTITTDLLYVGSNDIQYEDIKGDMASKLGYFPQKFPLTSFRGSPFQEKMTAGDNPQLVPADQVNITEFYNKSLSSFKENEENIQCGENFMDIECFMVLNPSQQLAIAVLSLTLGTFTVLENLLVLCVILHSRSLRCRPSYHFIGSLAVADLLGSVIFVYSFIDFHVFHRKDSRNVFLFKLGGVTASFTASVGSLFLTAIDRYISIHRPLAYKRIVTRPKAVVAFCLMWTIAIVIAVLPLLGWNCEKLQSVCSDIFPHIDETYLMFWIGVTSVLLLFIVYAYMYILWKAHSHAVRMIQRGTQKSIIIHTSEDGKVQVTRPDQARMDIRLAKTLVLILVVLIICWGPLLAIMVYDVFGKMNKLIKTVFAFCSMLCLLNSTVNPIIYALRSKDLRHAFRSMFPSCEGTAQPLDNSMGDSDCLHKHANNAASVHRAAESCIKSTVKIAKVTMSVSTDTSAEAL
# Procedure: The binding of compounds of Formula I to recombinant human CB1 receptors was determined in vitro by standard methods, with reference to the procedure described by Rinaldi-Carmona et al. (Rinaldi-Carmona, M., Pialot, F., Congy, C., Redon, E., Bart, F., Bachy, A., Breliere, J. C., Soubre, P., LeFur, G., Life Sci. 1996, 58(15), 1239-1247). Membranes were prepared from HEK293 cells expressing recombinant hCB1 receptors. Binding assays are performed in a total volume of 250 μL, containing [^3H]-SR-141716A (1 nM final concentration), membranes and test compound. Non-specific binding is determined using CP55,940 (10 μM). Serial dilutions are performed starting from test compounds as 10 mM solutions in DMSO. Compounds are tested over the concentration range 10^−10 M to 10^−5 M. Ki values are calculated from IC50 values using the Cheng-Prusoff equation.
melting point,pKi [1],Compound
110.5 to 112 °C,,CCC(OC1CN(C(N)=O)C1)c1cccc(C(F)(F)F)c1 (stereo not shown) [Example 42]
,6.55,"C=CCNC(=O)N1CC(OC(c2ccc(Cl)cc2)c2ccc(Cl)cc2)C1 [Example 6, 3-(Bis(4-chlorophenyl)methoxy)-N-(2-propenyl)azetidine-1-carboxamide]"
163 to 165.5 °C,,"NC(=O)N1CC(OCc2cccc(Cl)c2)C1 [Example 44, 3-((3-chlorophenyl)methoxy)-azetidine-1-carboxamide]"
76 to 78 °C,,C[C@@H](O)CNC(=O)N1CC(OCc2ccc(Cl)cc2)C1 [Example 36]
